PubChem BioAssay AID651854 (Broad Institute, 2012)
Calls of active or inactive are those of the source. How the calls were made is not given here.

Test system: not listed separately
Experiment: inducers of V. cholerae light production, dose response, BH1578, luxS and cqsA deficient, dry powder (AID 651854)
Conditions: V. cholerae BH1578 lux reporter, luminescence, 6 h; at 30 µM (top of the series)

SMILES | light induction
CC(C)NC(=O)Nc1ccc2c(c1)C(=O)N([C@H](C)CO)C[C@H](C)[C@@H](CN(C)Cc1ccncc1)OCCCC[C@@H](C)O2 | 3.45% (inactive)

Same assay, conditions: V. cholerae BH1578 lux reporter, luminescence, 6 h; at 35 µM (top of the series)

SMILES | light induction
CCn1nnc(NCc2ccc(N3CCCC3)cc2)n1 | 10.7% (inactive)
CO[C@@H]1CN(C)C(=O)c2cc(NC(=O)C3CC3)ccc2OC[C@H](C)N(C(=O)NC(C)C)C[C@H]1C | 1.05% (inactive)
CN1C(=O)c2cc(NS(C)(=O)=O)ccc2OC[C@@H]2O[C@H](CC(=O)NCc3ccc(-c4ccccc4)cc3)CC[C@@H]21 | 0.313% (inactive)
O=C(N[C@@H]1C=C[C@H](CC(=O)N2CCCCC2)O[C@H]1CO)c1ccc2c(c1)OCO2 | 0% (inactive)
C[C@H](CO)N1C[C@H](C)[C@H](CN(C)C(=O)Cc2ccncc2)Oc2cc(C3=CCCCC3)ccc2S1(=O)=O | 0.158% (inactive)
CO[C@H]1CN(C)C(=O)c2cc(NS(=O)(=O)c3c(C)noc3C)ccc2OC[C@H](C)NC[C@@H]1C | 0% (inactive)
Cc1noc(C)c1NC(=O)N(C)C[C@H]1Oc2ccc(NC(=O)CCC(F)(F)F)cc2C(=O)N([C@H](C)CO)C[C@H]1C | 0% (inactive)
O=[N+]([O-])c1ccc(N(CCO)CCO)c2c1no[n+]2[O-] | 9.14% (inactive)
CCOC(=O)c1cc2c(c(-c3cccc(Br)c3)n1)[C@@H](CCO)N(C(=O)NC(C)C)C2 | 0.322% (inactive)
CCCN(C)C[C@@H]1Oc2cc(C#Cc3cccc(OC)c3)ccc2S(=O)(=O)N([C@@H](C)CO)C[C@@H]1C | -0.148% (inactive)
C[C@H]1CN([C@@H](C)CO)C(=O)Cc2cc(NS(C)(=O)=O)ccc2O[C@H]1CN(C)Cc1ccc(-c2ccccc2)cc1 | -0.148% (inactive)
CO[C@@H]1CC[C@@H]2CCOc3ccc(C#N)cc3C(=O)N(C)C[C@H](C)C(=O)N(C)C[C@H]1O2 | 0.497% (inactive)
C[C@@H]1CN([C@@H](C)CO)S(=O)(=O)c2ccc(-c3ccncc3)cc2O[C@@H]1CN(C)S(=O)(=O)c1ccccc1F | 0.546% (inactive)
C[C@H](NC(=O)C[C@@H]1CC[C@H]2[C@H](COc3ccc(NS(=O)(=O)c4ccc(Cl)cc4)cc3C(=O)N2C)O1)c1ccccc1 | 0.158% (inactive)
C[C@H]1CN([C@@H](C)CO)C(=O)c2cc(NC(=O)CCC(F)(F)F)ccc2O[C@H]1CN(C)Cc1ccc(Cl)c(Cl)c1 | 1.05% (inactive)
Cc1ccc2cc3c(NC(=O)c4ccco4)nn(CC(C)C)c3nc2c1 | 2.93% (inactive)
CO[C@H]1CN(C)C(=O)c2cccc(C#N)c2OCC[C@@H]2CC[C@@H](OC)[C@@H](CN(C)C(=O)[C@H]1C)O2 | 5.31% (inactive)
CC=Cc1ccc2n(c1=O)C[C@@H]1[C@@H](CO)[C@H](C(=O)NCC)N(Cc3ccccc3Cl)[C@H]21 (mixture of isomers) | 0.694% (inactive)
O=[N+]([O-])c1ccc(N2CCOCC2)c2c1no[n+]2[O-] | 0.322% (inactive)

SMILES | light induction
COc1ccc(C#Cc2ccc3c(c2)O[C@H](CN(C)C(=O)CN2CCOCC2)[C@@H](C)CN([C@@H](C)CO)S3(=O)=O)cc1 | 0% (inactive)
Cc1noc(C)c1NC(=O)N(C)C[C@@H]1Oc2ccc(NC(=O)CCC(F)(F)F)cc2C(=O)N([C@@H](C)CO)C[C@@H]1C | 0.322% (inactive)
COc1ccc(C#Cc2cnc3c(c2)C(=O)N([C@@H](C)CO)C[C@H](C)[C@H](CN(C)C(=O)CC2CC2)O3)cc1 | 0% (inactive)
CCCC#Cc1cnc2c(c1)C(=O)N([C@H](C)CO)C[C@H](C)[C@H](CN(C)C(=O)CCN1CCCCC1)O2 | -0.148% (inactive)
COc1ccc(CNC(=O)N(C)C[C@@H]2OCc3ccccc3-c3c(n(C)c4ccccc34)C(=O)N([C@@H](C)CO)C[C@H]2C)cc1 | 1.27% (inactive)
C[C@H](CO)N1C[C@H](C)[C@@H](CN(C)S(=O)(=O)c2ccccc2F)Oc2cc(-c3ccncc3)ccc2S1(=O)=O | 0% (inactive)
O=C(O)C[C@@H]1CC[C@H](NC(=O)c2ccncc2)[C@@H](CO)O1 | 0.322% (inactive)
CO[C@@H]1CC[C@H]2CCOc3ccc(C#N)cc3C(=O)N(C)[C@H](C)C(=O)N(C)C[C@@H]1O2 | 0.313% (inactive)
C[C@H]1CCCCO[C@H](CN(C)C(=O)c2ccccc2)[C@@H](C)CN([C@@H](C)CO)C(=O)c2cc(NC(=O)c3ccccc3)ccc2O1 | -0.733% (inactive)
C[C@H](CO)N1C[C@H](C)[C@@H](CN(C)C(=O)NC2CCCCC2)OCc2ccccc2-c2c(n(C)c3ccccc23)C1=O | 0% (inactive)
COCC(=O)N[C@@H]1C=C[C@H](CC(=O)N2CCCCC2)O[C@@H]1CO | 0.262% (inactive)
Cc1ccccc1-c1ccc2c(c1)O[C@H](CN(C)Cc1ccc(C(=O)O)cc1)[C@@H](C)CN([C@H](C)CO)S2(=O)=O | -0.148% (inactive)
O=C(C[C@@H]1CC[C@@H]2[C@H](COC[C@H](O)CN2Cc2ccc(C(F)(F)F)cc2)O1)N1CCc2ccccc2C1 | 0.313% (inactive)
Cc1ccc2cc3c(NC(=O)c4ccccc4)nn(C)c3nc2c1 | 0.503% (inactive)
COc1ccc(-c2ccc([C@@H]3[C@H](C#N)N(C(=O)NC4CCCCC4)[C@H]3CO)cc2)cc1 | -0.497% (inactive)
Cc1ccc2cc3c(NC(=O)c4ccccn4)nn(C)c3nc2c1 | -0.663% (inactive)
CC(C)c1cccc(NC(=O)C[C@H]2CC[C@H]3[C@@H](COc4ccc(NC(=O)c5ccc(C#N)cc5)cc4C(=O)N3C)O2)c1 | 0.322% (inactive)
Cn1nc(NC(=O)c2ccco2)c2c(F)cccc21 | -0.824% (inactive)
CCC(=O)Nc1nn(C)c2nc3cc(C)ccc3cc12 | -0.824% (inactive)

Test system: V. cholerae BH1578 lux reporter, luminescence, 6 h
Experiment: as above
Conditions: not given

SMILES | AC40
COc1ccc(-c2ccc([C@H]3[C@@H](C#N)N(C(=O)NC4CCCCC4)[C@H]3CO)cc2)cc1 | > 35 µM (inactive)
CCn1nc(NC(=O)c2ccco2)c2cc3ccccc3nc21 | 5.43 µM
Cc1cc(C)c2c(NC(=O)c3ccco3)nn(C)c2n1 | > 35 µM (inactive)
CCCn1nnnc1NCc1ccc(N2CCCC2)cc1 | < 0.135 µM
C[C@H](CO)N1C[C@H](C)[C@@H](CN(C)S(=O)(=O)c2ccccc2)Oc2c(NC(=O)Nc3ccc4c(c3)OCO4)cccc2C1=O | > 16 µM (inactive)
Cn1c(C(=O)NC2CCCCC2)cc2c(=O)n(C)c3ccccc3c21 | > 35 µM (inactive)
CCn1nnnc1NCc1ccc(N2CCCC2)cc1 | < 0.135 µM
CCn1nc(NC(=O)c2ccco2)c2cc3ccc(C)cc3nc21 | > 35 µM (inactive)
CC(C)COC(=O)CNc1n[nH]c(=S)[nH]c1=O | > 35 µM (inactive)
Cc1ccc2cc3c(NC(=O)C4CCCCC4)nn(C)c3nc2c1 | < 0.135 µM
Cc1cccc2cc3c(NC(=O)c4ccco4)nn(C)c3nc12 | < 0.135 µM
O=C(NC1CCCCC1)C(=O)c1c[nH]c2ccccc12 | > 35 µM (inactive)
